Positions of bridges follow the written chain, without caps; N, C: chain ends. Non-standard residues stand in square brackets, D forms with d. Residues, ends and D or L forms follow the SMILES beside them. Phe(4-guanidino) = N=C(N)Nc1ccc(C[C@H](N)C(=O)O)cc1; 2Pal = N[C@@H](Cc1ccccn1)C(=O)O
What was measured:
hNav1.7 = hNav1.7 (Homo sapiens, UniProt Q15858); test: cell-based; details: Nav1.7 Use IC50
hNav1.5 = hNav1.5 (Homo sapiens, UniProt Q14524); test: cell-based
hNav1.5, sequence (Q14524 whole entry, looked up): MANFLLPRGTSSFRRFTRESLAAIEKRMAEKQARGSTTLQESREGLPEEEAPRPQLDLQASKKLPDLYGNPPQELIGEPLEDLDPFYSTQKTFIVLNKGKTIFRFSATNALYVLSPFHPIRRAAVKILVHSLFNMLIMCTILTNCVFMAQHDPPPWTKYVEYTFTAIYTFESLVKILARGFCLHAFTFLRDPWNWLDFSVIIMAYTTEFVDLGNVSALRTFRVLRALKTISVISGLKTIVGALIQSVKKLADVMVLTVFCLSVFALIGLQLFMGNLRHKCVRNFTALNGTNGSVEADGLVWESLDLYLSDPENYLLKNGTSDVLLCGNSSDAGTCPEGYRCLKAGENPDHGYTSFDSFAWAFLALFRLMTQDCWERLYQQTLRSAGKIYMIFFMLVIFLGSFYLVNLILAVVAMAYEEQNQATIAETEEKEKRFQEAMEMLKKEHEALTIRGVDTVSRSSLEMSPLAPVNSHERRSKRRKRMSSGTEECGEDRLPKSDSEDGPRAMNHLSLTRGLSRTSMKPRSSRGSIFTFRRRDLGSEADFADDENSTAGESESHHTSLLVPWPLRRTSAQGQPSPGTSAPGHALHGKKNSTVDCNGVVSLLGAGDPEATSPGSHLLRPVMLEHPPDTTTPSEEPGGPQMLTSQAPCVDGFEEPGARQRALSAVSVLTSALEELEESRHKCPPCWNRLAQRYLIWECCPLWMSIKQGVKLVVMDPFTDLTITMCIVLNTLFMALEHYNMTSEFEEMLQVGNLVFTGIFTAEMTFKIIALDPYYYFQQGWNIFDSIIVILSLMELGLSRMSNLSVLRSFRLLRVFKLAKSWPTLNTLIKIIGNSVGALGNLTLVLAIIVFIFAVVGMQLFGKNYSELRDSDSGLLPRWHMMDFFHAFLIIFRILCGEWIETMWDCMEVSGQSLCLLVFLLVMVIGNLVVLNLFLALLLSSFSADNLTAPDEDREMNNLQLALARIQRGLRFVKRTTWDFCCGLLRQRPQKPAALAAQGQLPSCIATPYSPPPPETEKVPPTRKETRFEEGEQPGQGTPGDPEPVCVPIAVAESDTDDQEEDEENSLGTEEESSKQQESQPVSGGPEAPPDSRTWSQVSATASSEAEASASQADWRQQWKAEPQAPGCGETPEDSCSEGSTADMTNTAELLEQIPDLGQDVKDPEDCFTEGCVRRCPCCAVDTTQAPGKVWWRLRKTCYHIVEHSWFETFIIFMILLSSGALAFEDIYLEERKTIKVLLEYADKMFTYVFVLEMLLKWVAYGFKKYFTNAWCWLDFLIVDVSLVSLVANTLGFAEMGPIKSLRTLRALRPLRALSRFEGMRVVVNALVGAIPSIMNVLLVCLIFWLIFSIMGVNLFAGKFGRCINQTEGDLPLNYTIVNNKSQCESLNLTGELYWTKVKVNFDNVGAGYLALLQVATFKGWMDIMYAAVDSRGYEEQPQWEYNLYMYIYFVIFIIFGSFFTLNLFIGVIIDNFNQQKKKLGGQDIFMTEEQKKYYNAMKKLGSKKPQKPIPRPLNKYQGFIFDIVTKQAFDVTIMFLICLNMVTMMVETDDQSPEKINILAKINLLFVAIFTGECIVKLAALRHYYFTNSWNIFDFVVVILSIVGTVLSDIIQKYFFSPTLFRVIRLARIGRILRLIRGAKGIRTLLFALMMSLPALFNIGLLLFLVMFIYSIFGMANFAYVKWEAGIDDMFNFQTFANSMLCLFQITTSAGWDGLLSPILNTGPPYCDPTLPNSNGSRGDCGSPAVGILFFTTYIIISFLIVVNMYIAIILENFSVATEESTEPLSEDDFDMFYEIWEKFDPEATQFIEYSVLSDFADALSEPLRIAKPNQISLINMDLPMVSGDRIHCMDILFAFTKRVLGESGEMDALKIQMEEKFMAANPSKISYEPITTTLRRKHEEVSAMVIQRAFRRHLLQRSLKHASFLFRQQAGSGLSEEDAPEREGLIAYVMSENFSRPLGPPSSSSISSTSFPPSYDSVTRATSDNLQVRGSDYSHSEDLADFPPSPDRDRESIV

hNav1.7, sequence (Q15858 whole entry, looked up): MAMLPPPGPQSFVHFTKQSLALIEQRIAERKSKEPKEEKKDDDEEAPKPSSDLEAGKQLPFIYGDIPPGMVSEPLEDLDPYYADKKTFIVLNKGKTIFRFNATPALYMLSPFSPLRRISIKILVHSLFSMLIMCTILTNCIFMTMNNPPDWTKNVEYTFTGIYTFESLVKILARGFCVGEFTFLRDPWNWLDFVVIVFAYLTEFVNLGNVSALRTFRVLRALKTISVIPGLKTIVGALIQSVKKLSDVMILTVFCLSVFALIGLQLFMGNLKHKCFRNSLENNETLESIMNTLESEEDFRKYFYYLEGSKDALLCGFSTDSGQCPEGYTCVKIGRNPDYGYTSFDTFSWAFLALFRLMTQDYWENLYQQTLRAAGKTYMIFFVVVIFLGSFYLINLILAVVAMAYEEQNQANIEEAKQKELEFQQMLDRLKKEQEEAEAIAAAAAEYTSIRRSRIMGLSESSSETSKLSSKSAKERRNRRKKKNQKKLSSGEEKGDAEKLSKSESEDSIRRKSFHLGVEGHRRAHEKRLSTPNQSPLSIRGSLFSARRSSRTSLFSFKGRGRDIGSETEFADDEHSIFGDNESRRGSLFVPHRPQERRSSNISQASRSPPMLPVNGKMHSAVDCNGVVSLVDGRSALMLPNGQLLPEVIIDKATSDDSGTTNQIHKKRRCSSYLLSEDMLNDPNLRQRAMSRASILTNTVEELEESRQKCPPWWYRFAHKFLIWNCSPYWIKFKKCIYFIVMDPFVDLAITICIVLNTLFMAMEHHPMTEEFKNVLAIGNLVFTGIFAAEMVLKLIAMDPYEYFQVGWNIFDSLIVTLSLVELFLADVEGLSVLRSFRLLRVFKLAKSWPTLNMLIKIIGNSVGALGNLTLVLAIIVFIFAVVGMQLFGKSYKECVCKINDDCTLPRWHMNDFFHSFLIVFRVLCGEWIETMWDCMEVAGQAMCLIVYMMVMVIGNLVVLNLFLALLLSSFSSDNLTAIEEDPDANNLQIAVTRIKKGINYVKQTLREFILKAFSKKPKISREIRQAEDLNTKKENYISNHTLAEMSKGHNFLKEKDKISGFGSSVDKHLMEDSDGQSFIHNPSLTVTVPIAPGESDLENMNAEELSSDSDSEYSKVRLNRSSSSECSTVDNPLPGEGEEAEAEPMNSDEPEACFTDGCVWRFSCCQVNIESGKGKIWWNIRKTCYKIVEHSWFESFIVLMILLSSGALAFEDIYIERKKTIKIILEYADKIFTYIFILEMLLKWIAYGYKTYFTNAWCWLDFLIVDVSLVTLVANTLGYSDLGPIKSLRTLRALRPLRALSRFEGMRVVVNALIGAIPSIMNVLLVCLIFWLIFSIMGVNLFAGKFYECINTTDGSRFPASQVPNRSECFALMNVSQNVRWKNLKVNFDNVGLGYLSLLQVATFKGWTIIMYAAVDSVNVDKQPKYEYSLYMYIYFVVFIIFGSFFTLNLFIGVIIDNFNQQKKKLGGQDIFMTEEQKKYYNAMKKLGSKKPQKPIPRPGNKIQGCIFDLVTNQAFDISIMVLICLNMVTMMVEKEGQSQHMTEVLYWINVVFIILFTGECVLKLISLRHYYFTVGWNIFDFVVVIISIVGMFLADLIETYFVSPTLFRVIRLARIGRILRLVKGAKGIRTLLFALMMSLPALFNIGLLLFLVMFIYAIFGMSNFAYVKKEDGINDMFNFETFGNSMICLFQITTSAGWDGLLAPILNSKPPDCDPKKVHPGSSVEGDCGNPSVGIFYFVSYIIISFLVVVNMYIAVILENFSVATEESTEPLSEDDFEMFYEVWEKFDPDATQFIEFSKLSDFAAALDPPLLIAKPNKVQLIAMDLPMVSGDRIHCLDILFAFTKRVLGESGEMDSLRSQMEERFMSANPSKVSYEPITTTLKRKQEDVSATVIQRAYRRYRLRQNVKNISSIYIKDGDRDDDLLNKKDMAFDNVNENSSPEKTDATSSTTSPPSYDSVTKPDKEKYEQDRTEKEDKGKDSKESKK

Structure (SMILES) | IC50 (hNav1.7) [nM] | IC50 (hNav1.5) [µM]
CC[C@H](C)[C@@H]1NC(=O)[C@@H]2CSSC[C@@H]3NC(=O)[C@H](C(C)C)NC(=O)[C@H](CC(C)C)NC(=O)[C@H](CC(N)=O)NC(=O)[C@@H]4CCCN4C(=O)[C@H](CCCNC(=N)N)NC(=O)[C@H](CSSC[C@H](NC(=O)[C@@H](N)CC(=O)O)C(=O)N[C@@H](CC(C)C)C(=O)NCC(=O)N[C@@H](C)C(=O)N[C@@H](CCSC)C(=O)N[C@@H](CCCNC(=N)N)C(=O)N[C@@H](CCCCN)C(=O)N2)NC(=O)[C@H](CSSC[C@@H](C(=O)N[C@@H](CCCCN)C(=O)N[C@@H](Cc2ccc(O)cc2)C(=O)N[C@H](C(=O)N[C@@H](Cc2ccccc2)C(N)=O)C(C)C)NC(=O)[C@H](Cc2c[nH]c4ccccc24)NC(=O)[C@H](Cc2ccc(NC(=N)N)cc2)NC(=O)[C@H](Cc2c[nH]cn2)NC(=O)[C@H]([C@@H](C)O)NC(=O)[C@H](CCCNC(=N)N)NC(=O)[C@H](CO)NC3=O)NC(=O)[C@H](CCCCN)NC(=O)[C@H](CC(=O)O)NC(=O)[C@H](CC(N)=O)NC(=O)[C@H](CC(=O)O)NC(=O)[C@@H]2CCCN2C1=O [[Ala5;Guf28]GpTx-1(1-34)] (H-DCLGAMRKCIPDNDKCCRPNLVCSRTH[Phe(4-guanidino)]WCKYVF-NH2; disulfide 2-17, 9-23, 16-30) | 5 | > 10
CC[C@H](C)[C@@H]1NC(=O)[C@@H]2CSSC[C@@H]3NC(=O)[C@H](C(C)C)NC(=O)[C@H](CC(C)C)NC(=O)[C@H](CC(N)=O)NC(=O)[C@@H]4CCCN4C(=O)[C@H](CCCNC(=N)N)NC(=O)[C@H](CSSC[C@H](NC(=O)[C@@H](N)CC(=O)O)C(=O)N[C@@H](CC(C)C)C(=O)NCC(=O)N[C@@H](C(C)C)C(=O)N[C@@H](CC(C)C)C(=O)N[C@@H](CCCNC(=N)N)C(=O)N[C@@H](CCCCN)C(=O)N2)NC(=O)[C@H](CSSC[C@@H](C(=O)N[C@@H](CCCCN)C(=O)N[C@@H](Cc2ccc(O)cc2)C(=O)N[C@H](C(=O)N[C@@H](Cc2ccccc2)C(N)=O)C(C)C)NC(=O)[C@H](Cc2c[nH]c4ccccc24)NC(=O)[C@H](CCCCN)NC(=O)[C@H](Cc2c[nH]cn2)NC(=O)[C@H]([C@@H](C)O)NC(=O)[C@H](CCCNC(=N)N)NC(=O)[C@H](CO)NC3=O)NC(=O)[C@H](CCCCN)NC(=O)[C@H](CC(=O)O)NC(=O)[C@H](CC(N)=O)NC(=O)[C@H](CC(=O)O)NC(=O)[C@@H]2CCCN2C1=O [[Val5;Leu6]GpTx-1(1-34)] (H-DCLGVLRKCIPDNDKCCRPNLVCSRTHKWCKYVF-NH2; disulfide 2-17, 9-23, 16-30) | 200 | > 10
CC(C)C[C@@H]1NC(=O)[C@H](C)NC(=O)CNC(=O)[C@H](CC(C)C)NC(=O)[C@@H](NC(=O)[C@@H](N)CC(=O)O)CSSC[C@@H]2NC(=O)[C@@H]3CSSC[C@@H](C(=O)N[C@@H](CCCCN)C(=O)N[C@@H](Cc4ccc(O)cc4)C(=O)N[C@H](C(=O)N[C@@H](Cc4ccccc4)C(N)=O)C(C)C)NC(=O)[C@H](Cc4c[nH]c5ccccc45)NC(=O)[C@H](CCCCN)NC(=O)[C@H](Cc4c[nH]cn4)NC(=O)[C@H]([C@@H](C)O)NC(=O)[C@H](CCCNC(=N)N)NC(=O)[C@H](CO)NC(=O)[C@H](CSSC[C@H](NC(=O)[C@H](CCCCN)NC(=O)[C@H](CCCNC(=N)N)NC1=O)C(=O)N[C@@H](CCC(=O)O)C(=O)N1CCC[C@H]1C(=O)N[C@@H](CC(=O)O)C(=O)N[C@@H](CC(N)=O)C(=O)N[C@@H](CC(=O)O)C(=O)N[C@@H](CCCCN)C(=O)N3)NC(=O)[C@H](C(C)C)NC(=O)[C@H](CC(C)C)NC(=O)[C@H](CC(N)=O)NC(=O)[C@@H]1CCCN1C(=O)[C@H](CCCNC(=N)N)NC2=O [[Ala5;Leu6;Glu10]GpTx-1(1-34)] | 30 | > 10
CC[C@H](C)[C@@H]1NC(=O)[C@@H]2CSSC[C@@H]3NC(=O)[C@H](C(C)C)NC(=O)[C@H](CC(C)C)NC(=O)[C@H](CC(N)=O)NC(=O)[C@@H]4CCCN4C(=O)[C@H](CCCNC(=N)N)NC(=O)[C@H](CSSC[C@H](NC(=O)[C@@H](N)CC(=O)O)C(=O)N[C@@H](CC(C)C)C(=O)NCC(=O)N[C@@H](CC(C)C)C(=O)N[C@@H](CC(C)C)C(=O)N[C@@H](CCCNC(=N)N)C(=O)N[C@@H](CCCCN)C(=O)N2)NC(=O)[C@H](CSSC[C@@H](C(=O)N[C@@H](CCCCN)C(=O)N[C@@H](Cc2ccc(O)cc2)C(=O)N[C@H](C(=O)N[C@@H](Cc2ccccc2)C(N)=O)C(C)C)NC(=O)[C@H](Cc2c[nH]c4ccccc24)NC(=O)[C@H](CCCCN)NC(=O)[C@H](Cc2c[nH]cn2)NC(=O)[C@H]([C@@H](C)O)NC(=O)[C@H](CCCNC(=N)N)NC(=O)[C@H](CO)NC3=O)NC(=O)[C@H](CCCCN)NC(=O)[C@H](CC(=O)O)NC(=O)[C@H](CC(N)=O)NC(=O)[C@H](CC(=O)O)NC(=O)[C@@H]2CCCN2C1=O [[Leu5,6]GpTx-1(1-34)] (H-DCLGLLRKCIPDNDKCCRPNLVCSRTHKWCKYVF-NH2; disulfide 2-17, 9-23, 16-30) | 11 | > 10
CC[C@H](C)[C@@H]1NC(=O)[C@@H]2CSSC[C@@H]3NC(=O)[C@H](C(C)C)NC(=O)[C@H](CC(C)C)NC(=O)[C@H](CC(N)=O)NC(=O)[C@@H]4CCCN4C(=O)[C@H](CCCNC(=N)N)NC(=O)[C@H](CSSC[C@H](NC(=O)[C@@H](N)CC(=O)O)C(=O)N[C@@H](CC(C)C)C(=O)NCC(=O)N[C@@H](C)C(=O)N[C@@H](CC(C)C)C(=O)N[C@@H](CCCNC(=N)N)C(=O)N[C@@H](CCCCN)C(=O)N2)NC(=O)[C@H](CSSC[C@@H](C(=O)N[C@@H](CCCCN)C(=O)N[C@@H](Cc2ccc(O)cc2)C(=O)N[C@H](C(=O)N[C@@H](Cc2ccccc2)C(N)=O)C(C)C)NC(=O)[C@H](Cc2c[nH]c4ccccc24)NC(=O)[C@H](CCCCN)NC(=O)[C@H](Cc2c[nH]cn2)NC(=O)[C@H]([C@@H](C)O)NC(=O)[C@H](CCCNC(=N)N)NC(=O)[C@H](CO)NC3=O)NC(=O)[C@H](CCCCN)NC(=O)[C@H](CC(=O)O)NC(=O)[C@H](CC(N)=O)NC(=O)[C@H](CCC(=O)O)NC(=O)[C@@H]2CCCN2C1=O [[Ala5;Leu6;Glu12]GpTx-1(1-34)] | 21 | > 10
CC[C@H](C)[C@@H]1NC(=O)[C@@H]2CSSC[C@@H]3NC(=O)[C@H](C(C)C)NC(=O)[C@H](CC(C)C)NC(=O)[C@H](CC(N)=O)NC(=O)[C@@H]4CCCN4C(=O)[C@H](CCCNC(=N)N)NC(=O)[C@H](CSSC[C@H](NC(=O)[C@@H](N)CC(=O)O)C(=O)N[C@@H](CC(C)C)C(=O)NCC(=O)N[C@@H](Cc4ccccc4)C(=O)N[C@@H](CCSC)C(=O)N[C@@H](CCCNC(=N)N)C(=O)N[C@@H](CCCCN)C(=O)N2)NC(=O)[C@H](CSSC[C@@H](C(=O)N[C@@H](CCCCN)C(=O)N[C@@H](Cc2ccccn2)C(=O)N[C@H](C(=O)N[C@@H](Cc2ccccc2)C(N)=O)C(C)C)NC(=O)[C@H](Cc2c[nH]c4ccccc24)NC(=O)[C@H](CCCCN)NC(=O)[C@H](Cc2c[nH]cn2)NC(=O)[C@H]([C@@H](C)O)NC(=O)[C@H](CCCNC(=N)N)NC(=O)[C@H](CO)NC3=O)NC(=O)[C@H](CCCCN)NC(=O)[C@H](CC(=O)O)NC(=O)[C@H](CC(N)=O)NC(=O)[C@H](CC(=O)O)NC(=O)[C@@H]2CCCN2C1=O [[2PAL32]GpTx-1(1-34)] (H-DCLGFMRKCIPDNDKCCRPNLVCSRTHKWCK[2Pal]VF-NH2; disulfide 2-17, 9-23, 16-30) | 35 | > 10
CC[C@H](C)[C@@H]1NC(=O)[C@@H]2CSSC[C@@H]3NC(=O)[C@H](C(C)C)NC(=O)[C@H](CC(C)C)NC(=O)[C@H](CC(N)=O)NC(=O)[C@@H]4CCCN4C(=O)[C@H](CCCNC(=N)N)NC(=O)[C@H](CSSC[C@H](NC(=O)[C@@H](N)CC(=O)O)C(=O)N[C@@H](CC(C)C)C(=O)NCC(=O)N[C@@H](C)C(=O)N[C@@H](CCSC)C(=O)N[C@@H](CCCNC(=N)N)C(=O)N[C@@H](CCCCN)C(=O)N2)NC(=O)[C@H](CSSC[C@@H](C(=O)N[C@@H](CCCCN)C(=O)N[C@@H](Cc2ccc(O)cc2)C(=O)N[C@H](C(=O)N[C@@H](Cc2ccccc2)C(N)=O)C(C)C)NC(=O)[C@H](Cc2c[nH]c4ccccc24)NC(=O)[C@H](CCC(N)=O)NC(=O)[C@H](Cc2c[nH]cn2)NC(=O)[C@H]([C@@H](C)O)NC(=O)[C@H](CCCNC(=N)N)NC(=O)[C@H](CO)NC3=O)NC(=O)[C@H](CCCCN)NC(=O)[C@H](CC(=O)O)NC(=O)[C@H](CC(N)=O)NC(=O)[C@H](CC(=O)O)NC(=O)[C@@H]2CCCN2C1=O [[Ala5;Gln28]GpTx-1(1-34)] (H-DCLGAMRKCIPDNDKCCRPNLVCSRTHQWCKYVF-NH2; disulfide 2-17, 9-23, 16-30) | 37 | > 10
CC[C@H](C)[C@@H]1NC(=O)[C@@H]2CSSC[C@@H]3NC(=O)[C@H](C(C)C)NC(=O)[C@H](CC(C)C)NC(=O)[C@H](CC(N)=O)NC(=O)[C@@H]4CCCN4C(=O)[C@H](CCCNC(=N)N)NC(=O)[C@H](CSSC[C@H](NC(=O)[C@@H](N)CC(=O)O)C(=O)N[C@@H](CC(C)C)C(=O)NCC(=O)N[C@@H](C)C(=O)N[C@@H](CCSC)C(=O)N[C@@H](CCCNC(=N)N)C(=O)N[C@@H](CCCCN)C(=O)N2)NC(=O)[C@H](CSSC[C@@H](C(=O)N[C@@H](CCCCN)C(=O)N[C@@H](Cc2ccc(O)cc2)C(=O)N[C@H](C(=O)N[C@@H](Cc2ccccc2)C(N)=O)C(C)C)NC(=O)[C@H](Cc2c[nH]c4ccccc24)NC(=O)[C@H](CO)NC(=O)[C@H](Cc2c[nH]cn2)NC(=O)[C@H]([C@@H](C)O)NC(=O)[C@H](CCCNC(=N)N)NC(=O)[C@H](CO)NC3=O)NC(=O)[C@H](CCCCN)NC(=O)[C@H](CC(=O)O)NC(=O)[C@H](CC(N)=O)NC(=O)[C@H](CC(=O)O)NC(=O)[C@@H]2CCCN2C1=O [[Ala5;Ser28]GpTx-1(1-34)] (H-DCLGAMRKCIPDNDKCCRPNLVCSRTHSWCKYVF-NH2; disulfide 2-17, 9-23, 16-30) | 45 | > 10

Source: patent publication US9340590B2 (priority 2011, dated 2016)
